According to patent US20260240844A1, “INHIBITORS OF CHD1L AND USES THEREOF” (The Regents of the University of Colorado, a body corporate, priority 2023, published 2026):
Where two headings read alike, the source gives them in different places.

How the values were obtained:
[1] = system: SW620 Parental cells; experiment: SW620 Parental cell viability, combination with chemotherapy; assay type: cell-based; settings: SW620 cells
[2] = system: SUM149 and MDA-MB-231 cells; experiment: DDR biomarkers in breast cancer cells; assay type: cell-based; settings: 4 μM
Description: (§1) Etoposide was used as a control to show upregulation of DDR pathway biomarkers.

[3] = system: AIF in MDA-MB-231 cells; experiment: AIF localization in MDA-MB-231 cells; assay type: cell-based; settings: 4 μM
Method: (§2) The ability of Compounds 12, 15 and 16 to localize AIF was tested in SUM149 (breast cancer) and MDA-MB-231 (TNBC) cell lines. A comparison of the relative distribution of AIF in nuclei (a) versus cytoplasm (b) in SUM149 cells and nuclei (c) versus cytoplasm (d) in MDA-MB-231 cells in the presence of 4 μM Compounds 12, 15 and 16 are shown in FIG. 28. […] Similarly, AIF concentration in the cytoplasm of MDA-MB-231 cells decreased by about 0.5 after administration with Compound 15. After treatment with Compound 16, the relative concentration of AIF in the nuclei of SUM149 cells increased by about 0.5-fold, and the concentration of AIF in the cytoplasm decreased by about 0.4-fold. In MDA-MB-231 cells, the relative concentration of AIF in the cytoplasm decreased by about 0.5-fold, while the concentration of AIF increased in the nuclei by about 0.1-fold.

[4] = system: MiaPaca2 cells; experiment: MiaPaca2 cell viability, combination with chemotherapy; assay type: cell-based; settings: MiaPaca2 cells
Description: The cell viability assays and Bliss synergy analyses are as described above in Examples 1-9 and 11-12.

[5] = system: HCT116 Parental cells; experiment: HCT116 Parental cell viability, combination with chemotherapy; assay type: cell-based; settings: HCT116 cells
[6] = system: AIF in SUM149PT cells; experiment: AIF immunofluorescence in SUM149PT (SUM149) cells; assay type: cell-based; settings: SUM149 cells, 4 μM
Description: CHD1Li-mediated PAR translocation to the cytoplasm activates PARthanatos as a cell death mechanism. Parthanatos is a form a programmed cell death different from apoptosis and known to be mediated by PARP1 overactivation. The unique events occurring during parthanatos are: PARP1 rapid activation, accumulation of PAR and nuclear translocation of apoptosis inducing factor (AIF). Without being bound by any particular theory, accumulation of PAR in the cytoplasm caused by CHD1Li can also mediate parthanatos. To better understand the link between PAR translocation to the cytoplasm and cell death, immunofluorescence to measure the activation of caspase-3 and the subcellular localization of AIF after treatment with SOC drugs and Compound 6 in SUM49PT cells was used. […] Without being bound by any particular theory, this might be caused by the mitochondrial outer membrane permeabilization, which triggers release of mitochondrial proteins like AIF or cytochrome c, activating caspase-3 by its cleavage and leading to apoptosis. […] Moreover, when combining CHD1L inhibition with SOC drugs, the cell death mechanism shifts from apoptosis to parthanatos, evidenced by a significant increase in AIF nuclear translocation and decrease in activation of caspase-3 (FIG. 25D-E).
as §2

[7] = system: Colo678 cells; experiment: Colo678 cell viability, combination with chemotherapy; assay type: cell-based; settings: Colo678 cells, 72 h; combined with SN-38
[8] = system: Colo679 cells; experiment: DDR biomarkers (pATM, RAD51, 53BP1, γ-H2AX) in Colo679 cells; assay type: cell-based; settings: 4 μM
Description: as §1

[9] = system: SW620 tumor organoids; settings: 72 h; for IC50: read-out: IC50 SN38
[10] = system: SW620 CRC cells cultured as tumor organoids; experiment: Viability of isolated EMT phenotype SW620 tumor organoids; assay type: cell-based; settings: SW620 E, E/M, 72 h, combined with Compound 6
Method: FIG. 5A provides graphs showing isolated quasi EMT SW620 CRC cells E (red), E/M (yellow), and M (green) were cultured as tumor organoids and treated with SN38 combined with Compound 6 over 72 h as indicated. […].
CHD1L also regulates DNA repair via CHD1L/TCF-driven EMT by upregulating ZEB1 in CRC. ZEB1 promotes mesenchymal cell survival by upregulating the DDR. CHD1Li may sensitize isolated quasi EMT phenotypes by inhibiting EMT and DNA repair. To test this, combination studies with Compound 6 and chemotherapy measuring the viability of isolated EMT dual-reporter quasi-E, -E/M, and -M SW620 (HR-proficient) cells and HCT116 (HR-deficient) cells cultured as tumor organoids were tested. […]. […] […]. Taken together, CHD1Li synergized with chemotherapy and targeted therapy to overcome EMT-mediated drug resistance in CRC.

[11] = system: SW948 tumor organoids; experiment: cells
Method: ATM is an important protein involved in the initial stages of the DNA damage response. […] ATM mutations are important markers being developed to identify metastatic CRC (mCRC) patients that may be sensitive to DNA damaging chemotherapy.
Synergy was assessed using the Bliss model.

[12] = SW620 tumor organoids, + Compound 6.11 2.75 μM

**Q.** With `Cc1cc(Nc2ccc(NC(=O)c3cc(Br)c[nH]3)cc2)nc(N2CCCC2)n1` [Compound 12, 4-bromo-N-(4-((6-methyl-2-(pyrrolidin-1-yl)pyrimidin-4-yl)amino)phenyl)-1H-pyrrole-2-carboxamide] as the molecule, how does the “calculated mean synergy score” value ([1]; 72 h, combined with SN-38) read?
**A.** about 53

**Q.** What about the “calculated mean synergy score” value ([1]; combined with 5-FU) of the same molecule?
**A.** about 39

**Q.** What about the “amounts of γ-H2AX and 53BP1” value [2] of the same molecule?
**A.** overall decreases in the amounts of γ-H2AX and 53BP1

**Q.** What about the “increase in AIF in the nuclei” value [3] of the same molecule?
**A.** localized in both the nuclei and remained in the cytoplasm

**Q.** What about the “calculated mean synergy score” value ([4]; combined with 5-FU) of the same molecule?
**A.** about 57

**Q.** And the “calculated mean synergy score” value ([4]; combined with SN-38)?
**A.** about 18

**Q.** What about the “calculated mean synergy score” value ([5]; 72 h, combined with SN-38) of the same molecule?
**A.** about 20

**Q.** And the “calculated mean synergy score” value ([5]; combined with 5-FU)?
**A.** about 19

**Q.** And the “decrease in AIF in the cytoplasm” value [6]?
**A.** decrease in AIF in the cytoplasm

**Q.** What about the “increase in AIF in the nucleus” value [6] of the same molecule?
**A.** ~1 fold

**Q.** And the “calculated mean synergy score” value [7]?
**A.** about 26

**Q.** What about the “amount of 53BP1” value [8] of the same molecule?
**A.** decrease the amount of 53BP1

**Q.** And the “amount of RAD51” value [8]?
**A.** decrease in RAD51

**Q.** What about the “amount of pATM” value [8] of the same molecule?
**A.** increased the amount of pATM

**Q.** And the γ-H2AX concentrations [8]?
**A.** decreased

**Q.** Which results are given for `Cc1cc(Nc2ccc(NC(=O)Cc3c[nH]c4c(Cl)cccc34)cc2)nc(N2CCCC2)n1` [Compound 16, 2-(7-chloro-1H-indol-3-yl)-N-(4-((6-methyl-2-(pyrrolidin-1-yl)pyrimidin-4-yl)amino)phenyl)acetamide]?
**A.** amounts of γ-H2AX and 53BP1 [2]: overall decreases in the amounts of γ-H2AX and 53BP1; decrease in AIF in the cytoplasm [3]: about 0.5 fold; increase in AIF in the nuclei [3]: about 0.1 fold; decrease in AIF in the cytoplasm [6]: about 0.4 fold; increase in AIF in the nucleus [6]: about 0.5 fold; calculated mean synergy score [7]: about 26; amount of 53BP1 [8]: decrease the amount of 53BP1; amount of pATM [8]: increased the amount of pATM; γ-H2AX concentrations [8]: decreased

**Q.** Which “increase in cytotoxic potency compared to drug alone” value [9, 12] does the source give for `CCc1c2c(nc3ccc(O)cc13)-c1cc3c(c(=O)n1C2)COC(=O)[C@]3(O)CC` [SN-38] here?
**A.** ~ 600 fold

**Q.** And the IC50 ([9]; SW620 (ATM wt) tumor organoids, SN38 alone)?
**A.** ~0.6 µM

**Q.** What about the IC50 [9, 12] of the same molecule?
**A.** ~0.001 µM

**Q.** And the “increase of SN38 cytotoxic potency” value [10]?
**A.** hundreds-of-fold to thousands-of-fold

**Q.** What about the “increase in potency of the chemotherapy” value ([11]; SW948 tumor organoids, combined with Compound 6) of the same molecule?
**A.** 1000 fold

**Q.** What about the “improvement of cytotoxic potency” value ([11]; SW948 tumor organoids, combined with Compound 6.11) of the same molecule?
**A.** 1,000 fold

**Q.** And the IC50 ([11]; read-out: IC50 SN38, SW948 tumor organoids, SN38 alone)?
**A.** 3.16 µM

**Q.** And the IC50 ([11]; read-out: IC50 SN38, SW948 tumor organoids, combined with Compound 6.11)?
**A.** 0.0032 µM

**Q.** And the IC50 ([11]; read-out: IC50 SN-38, SW948 tumor organoids, combined with Compound 6)?
**A.** ~0.003 µM

**Q.** What about the IC50 ([11]; read-out: IC50 of chemotherapy alone, SW948 chemo resistant tumor organoids) of the same molecule?
**A.** ~3 µM
